Biological target: Ras-related C3 botulinum toxin substrate 1 (Mus musculus, UniProt P63001)
Assay: wildtype Rac1 GTP binding inhibitors, SAR follow-up, biochemical, oxadiazole analogs, multiplex bead flow cytometry (AID 2027)

SMILES: COc1ccc(-c2noc(CCC(=O)N3CCN(c4ccccc4F)CC3)n2)cc1 [1-[4-(2-fluorophenyl)piperazin-1-yl]-3-[3-(4-methoxyphenyl)-1,2,4-oxadiazol-5-yl]propan-1-one]
- Ki: 100 nM
